Results reported in patent publication US5952298A, “Cryptophycins” (priority 1995, dated 1999).

How the values were obtained:
[1] = system: A-10 rat aortic smooth muscle cells; assay type: cell-based
Description: A-10 cells were grown to near-confluency on glass coverslips in BME/10% FBS. Compounds in PBS were added to the indicated final concentrations and cells were incubated for an additional 24 hours. For the staining of microtubules and intermediate filaments, the cells were fixed with cold methanol and incubated with PBS containing 10% calf serum to block nonspecific binding sites. Cells were then incubated at 37° C. for 60 min with either monoclonal anti-β-tubulin or with monoclonal anti-vimentin at dilutions recommended by the manufacturer. Bound primary antibodies were subsequently visualized by a 45-minute incubation with fluorescein-conjugated rabbit antimouse IgG. The coverslips were mounted on microscope slides and the fluorescence patterns were examined and photographed using a Zeiss Photomicroscope Ill equipped with epifluorescence optics for fluorescein. […] PBS containing 100 nM TRITC-phalloidin was then added and the mixture was allowed to incubate for 45 min at 37° C. The cells were washed rapidly three times with PBS before the coverslips were mounted and immediately photographed as described above.
After 24 hours, microtubules and vimentin intermediate filaments were visualized by indirect immunofluorescence and microfilaments were stained using TRITC-phalloidin. The morphological effects of each drug were examined. […] Vimentin intermediate filaments were also evenly distributed throughout the cytoplasm, while bundles of microfilaments were concentrated along the major axis of the cell.

[2] = system: murine leukemia (L1210 or P388), murine solid tumor, human solid tumor and low malignancy fibroblast (LML) cells; details: 0.2 μg/disk

Structure (SMILES) | effect on microfilaments ([1]; 2 μM cytochalasin B, 24 hours) | effect on microtubules ([1]; 24 hours, 2 μM cytochalasin B, 100 nM vinblastine or 10 nM cryptophycin compounds) | Differential in Zone Units, Corbett Assay [2] [zone units] | Type of Cytotoxicity, Corbett Assay [2] | microtubule organization in taxol-treated cells ([1]; 10 μM taxol)
C=C1[C@@H](C)[C@H]2[C@H](Cc3ccccc3)NC(=O)[C@]23OC(=O)/C=C/[C@H](O)CCC[C@@H](C)C/C=C/[C@H]3[C@@H]1O [Cytochalasin B, cytochalasin B] | complete depolymerization of microfilaments | did not affect the distribution of either microtubules or intermediate filaments | – | – | –
CC(=O)O[C@H]1C(=O)[C@@]2(C)[C@H]([C@H](OC(=O)c3ccccc3)[C@]3(O)C[C@H](OC(=O)[C@H](O)[C@@H](NC(=O)c4ccccc4)c4ccccc4)C(C)=C1C3(C)C)[C@]1(OC(C)=O)CO[C@@H]1C[C@@H]2O [taxol, reference compound] | – | – | ≥ 400 | M/H/T | extensively bundled
